Columns and labels:
[1] = target: T1, Farnesyl-protein transferase from bovine brain (partially purified enzyme preparation) (Bos taurus, UniProt P29702+P49355); assay: Competition of Ras farnesylation by polyisoprenoids and peptides (Hepes-buffered assay, immunoprecipitation and nitrocellulose filtration); assay type: biochemical; details: for IC50: [Leu68]RAS1(term.)CVLS at 1 µM, 0.5 µM [3H]FPP, 10 min at 24° C, average of 2-5 determinations, >> = no competition at the highest concentration tested; for competition of the farnesylation reaction (in words): 0.5 µM [3H]FPP and 1 µM Ras
T1 construct: the indicated compounds were incubated with this partially purified enzyme preparation; from tissue; host or cells: bovine brain; chromatographed on DEAE-Sephacel and N-octyl agarose
Protocol: Enzyme reactions were analyzed by SDS-PAGE (sodium dodecyl sulfate/polyacrylamide gel electrophoresis) or immunoprecipitation. For gel analysis, each labeling reaction was boiled for 3 min in buffer containing 1% SDS/100 mM Tris-Cl, pH 6.8/10% glycerol/1% 2-mercaptoethanol, and loaded directly on 13.7% polyacrylamide gels. Radiolabeled Ras was visualized by autoradiography after fluorographic enhancement with Enlightning (New England Nuclear). For immunoprecipitation of radiolabelled Ras, reactions were first extracted with Triton X-114 using a modification of the procedure of Bordier (J. Biol. Chem. 256:1604-1607(1981). An aliquot (150 µl) of 1% Triton X-114 (Pierce) was added to the 50 µl reaction mix to achieve a final Triton X-114 concentration of 0.75%. Following 10 min. on ice, the tubes were transfered to a 37°C bath for 3 min. The cloudy solution was then centrifuged at 10,000 x g for 5 min. at room temperature. The upper aqueous phase was removed, and the detergent phase was diluted by the addition of 150 µl cold phosphate-buffed saline plus 150 µl of Ras monoclonal antibody Y13-259 coupled to Sepharose-protein A beads (Gutierrez et al. EMBO J. 8:1093-1098(1989) and Hancock et al. Cell 57:1167-1177(1989).
Farnesyl-protein transferase from bovine brain was chromatographed on DEAE-Sephacel (Pharmacia, 0-0.8 M NaCl gradient elution) and N-octyl agarose (Sigma, 0-0.6 M NaCl gradient elution). […] Reactions were analyzed by immunoprecipitation without the Triton X-114 extraction step followed by Nitrocellulose filtration.

[2] = target: bovine brain farnesylprotein transferase activity (Bos taurus, UniProt P29702+P49355); assay: Apparent Km estimation for farnesylation of Ras, varying [14C]FPP and [Leu61]Ha Ras concentration; assay type: biochemical; details: [14C]FPP varied 0.03-30 µM, [Leu61]Ha Ras varied 0.03-250 µM; estimated
Protocol: Polyisoprenylation of Ras⁻ [³H]mevalonic acid (35 Ci/mmol) and [³H]farnesyl-PPi(FPP) FPP (20 Ci/mmol) were purchased from New England Nuclear. [¹⁴C]FPP (49.7 mCi/mmol) was prepared enzymatically from partially purified prenyl transferase, [4-¹⁴C]isopentyl-PPi (47.9 mCi/mmol, Amersham), and geranyl-PPi. Reactions contained 280 pmol (10 µCi) of [³H]mevalonic acid, 500 pmol (0.025 µCi) of [¹⁴C]FPP or 25 pmol (0.5 µci) of [³H]FPP. In a standard 50 µl reaction, 250 pmol of Ras purified from E. coli (Gibbs et al. Proc. Natl. Acad. Sci. USA 86:6630-6634(1989)) was added to 35 µl of rabbit reticulocyte lysate (Promega, L4210) or a tissue extract (100,00 x g supernatant, 10 mg/ml). Buffer conditions were adjusted by the addition of one-tenth volume of 500 mM Tris-Cl, pH 8.0/50 mM MgCl₂ or one-tenth volume of 500 mM NaHepes, pH 7.5/50 mM MgCl₂/50mM dithiothreitol. In the Tris-buffered assay, the reactions were incubated for 1 hour at 24°C. Reaction velocities in the Hepes buffered assays were at least four times greater, and incubations were for 10 minutes at 24°C. Tissue extracts were prepared as described previously [(ethylenebis(oxyethylenenitrilo)]tetra-acetic acid in buffer containing 50 mM Tris-Cl, pH 8.0/1 mM EGTA/1 mM MgCl₂/1 mM dithiothreitol/10 µl/ml aprotinin/0.5 mM phenylmethlysulfonyl fluoride. […]

Row | Compound | IC50 [1] | competition of the farnesylation reaction (in words) [1] | Km [2]
1 | S-(trans, trans) farnesyl-CVLS | 28 µM |  | 
2 | Cys-Val-Leu-Ser (CVLS; printed: Cys-Val-Leu-Ser) | 2.2 µM |  | 
3 | CC(C)=CCC/C(C)=C/COP(=O)(O)OP(=O)(O)O [Geranyl-PPi] | 67 µM |  | 
4 | CC(C)=CCCC(C)=CCCC(C)=CCO [Farnesol] | > 100 µM | inactive | 
5 | CC(C)=CCC/C(C)=C/CC/C(C)=C/CC/C(C)=C/CO [Geranylgeraniol] | > 100 µM | inactive | 
6 | CC(C)=CCOP(=O)(O)OP(=O)(O)O [Dimethylallyl-PPi] | 325 µM |  | 

These reach a lower IC50 [1]. Values come first.

Row | IC50 [1] | competition of the farnesylation reaction (in words) [1] | Km [2] | Compound
7 | 1.4 µM |  |  | S-(trans, trans) farnesyl-CVIM
8 | 1.4 µM | potently inhibited |  | CC(C)=CCC/C(C)=C/CC/C(C)=C/CC/C(C)=C/COP(=O)(O)OP(=O)(O)O [Geranylgeranyl-PPi]
9 | 0.7 µM | potently inhibited | 0.3 µM | CC(C)=CCC/C(C)=C/CC/C(C)=C/COP(=O)(O)OP(=O)(O)O [Farnesyl-PPi]

Reference: patent EP0461869A2, “Chemotherapeutic agents” (MERCK & CO. INC., priority 1990, dated 1991)
